Test results as given in US20150366191A1, “ANTIMICROBIAL METHOD BY BLOCKING MANNITOL METABOLISM AND ANTIMICROBIAL COMPOSITION CONTAINING MANNITOL METABOLIC INHIBITOR” (Research & Business FOUNDATION SUNGKYUNKWAN UNIVERSITY, priority 2014, published 2015).

Tests used:
mannitol metabolism = mannitol metabolism inhibition, phenol red colour change in mannitol medium; format: cell-based; conditions: medium containing 27 mM of mannitol and phenol red
Experimental: When bacteria were cultured in a medium containing 27 mM of mannitol and phenol red, the mannitol was metabolized to produce fructose and reduce pH of the medium, thereby changing a color of the phenol red to yellow. However, since the phenol red was not changed in color to keep the medium red by inhibiting the mannitol metabolism, an inhibitor showing an mannitol metabolism inhibitory effect was found using such a principle (FIG. 11A).

bacteria [1] = assay: chemical toxicity assay (growth of bacteria); format: cell-based
M1PDH = M1PDH (Staphylococcus aureus, UniProt P99140); assay: in vitro M1PDH enzymatic assay (NADH optical density at 340 nm); format: biochemical; conditions: fructose-6-phosphate and NADH, or Mtl-1-phosphate and NAD as substrates
Source text: To measure an in vitro M1PDH enzyme activity, a change in concentration of NADH according to an enzyme activity was observed through a change in optical density at 340 nm using fructose-6-phosphate and NADH, or Mtl-1-phosphate and NAD as substrates.

[2] = system: bacteria infected into macrophages; assay: macrophage infection model, viability of bacteria in the presence of mannitol; format: cell-based, Staphylococcus aureus; conditions: compound and mannitol used together; after 18 hours of infection
Source text: In addition, to confirm an inhibitory effect in a host cell, a macrophage infection model was used.

bacteria [3] = assay: viability of bacteria by optical density at 600 nm; format: cell-based; conditions: change in concentration of the compound; OD 600 nm

SMILES | mannitol metabolism inhibitory effect (mannitol metabolism) | inhibition of growth of bacteria (bacteria [1]) | inhibition of M1PDH activity (M1PDH) | SA viability in macrophages [2] | viability of bacteria (bacteria [3])
Cc1nn(-c2ccccc2)c2c1C(c1ccc([N+](=O)[O-])cc1)C(C#N)=C(N)O2 (stereo not drawn) [Compound 10, 6-amino-3-methyl-4-(4-nitrophenyl)-1-phenyl-1,4-dihydropyrano[2,3-c]pyrazole-5-carbonitrile] | inhibiting only the mannitol metabolism | not inhibiting growth of bacteria | inhibited M1PDH activity | – | –
O=C(NC(=O)c1ccc(Oc2ccc(Cl)cc2)c([N+](=O)O)c1)Nc1ccccc1C(F)(F)F [Compound 31, N-[4-(4-chlorophenoxy)-3-nitrobenzoyl]-N′-[2-(trifluoromethyl)phenyl]urea] | inhibiting only the mannitol metabolism | not inhibiting growth of bacteria | inhibited M1PDH activity | – | –
COc1nc(NC(=O)NS(=O)(=O)c2ccccc2C(F)(F)F)nc(C23CC4CC(CC(C4)C2)C3)n1 [Compound 26, 2-(1-adamantyl)-4-methoxy-6-{[({[2-(trifluoromethyl)phenyl]sulfonyl}amino)carbonyl]amino}-1,3,5-triazine] | inhibiting only the mannitol metabolism | not inhibiting growth of bacteria | inhibited M1PDH activity | – | –
Nc1c(-c2ccc3ccccc3n2)c2ccc([N+](=O)[O-])cc2c(=O)n1Cc1ccccc1 [Compound 27, 3-amino-2-benzyl-7-nitro-4-(2-quinolyl)-1,2-dihydroisoquinolin-1-one] | inhibiting only the mannitol metabolism | not inhibiting growth of bacteria | inhibited M1PDH activity | – | –
Cc1c(O)c(O)cc2c1CC=C1[C@@]2(C)CC[C@@]2(C)C3C[C@](C)(C(=O)O)CC[C@]3(C)CC[C@]12C (stereo partly drawn) [Compound 5, (2R,4aS,6aS,6aS,14aS,14bR)-10,11-dihydroxy-2,4a,6a,6a,9,14a-hexamethyl-3,4,5,6,8,13,14,14b-octahydro-1H-picene-2-carboxylic acid] | – | – | inhibiting an activity of M1PDH | decrease in SA viability in a macrophage | decrease in viability
